Data reported in patent EP4737449A1 (Changchun Genescience Pharmaceutical Co., Ltd., priority 2023, dated 2025).

Tests used:
[1] = Caco-2 cell permeability test; format: in vitro ADME; conditions: human, Caco-2, 10 µM compound; for Papp A→B at 120 min, 10 µM / Papp B→A at 120 min, 10 µM / efflux ratio at 120 min, 10 µM: pH 7.4; for efflux ratio at 120 min, 10 µM: read-out: Efflux rate
Description: • 1) Cell culture: The resuscitated Caco-2 cells were cultured in DMEM culture solution containing 10% FBS, 1% Penicillin-Streptomycin Liquid (100X) and 1% NEAA in an incubator at 37 °C with 5% CO2. The culture medium was replaced every 2-3 days and subculture was carried out when the cell confluence reached about 80%. • 2) Preparation of transport buffer: Transport buffer (pH 7.4) was prepared by adding 5 mL of 1M HEPES to 500 mL of HBSS (with or without BSA) to a final concentration of 10 mM HEPES (with or without BSA). • 3) Before the start of the transport experiment (day 14-28), the culture medium was taken out from the cell culture plate, the plate was washed twice with preheated HBSS buffer (10 mM HEPES, pH 7.4), and 100 µL of HBSS buffer was added into each well. After incubation at 37°C for 30 min, the TEER values were measured by a cell resistance meter (Millicell-ERS2) to confirm the integrity and compactness of the monolayer cells. • 4) The HBSS buffer was discarded, the upper plate containing the cell monolayer membrane was transferred to the corresponding receiving plate, the test compound solution or buffer was added to the top (A side) and the basal side (B side), respectively, the cell plate was placed in the corresponding 96-well receiving plate, and grouping was carried out according to Table 6. The prepared positive control drug, test compound or HBSS (with or without BSA) buffer were added to the A side or B side of the Transwell cell plate filter membrane, and the cell plate was incubated at 37°C. Table 6. Compound grouping scheme
• 1) After incubation for 5 min, a sample was taken from the A and B administration sides, 8 µL each side, and added into 72 µL of transport buffer (diluted 10 times) to serve as T0 of the initial administration solution. • 2) After incubation for 120 min, the samples from both ends of the Transwell cell plate filter membrane were collected, and 80 µL of sample solution was taken from the receiving side to serve as the sample at the receiving side after transport, and 8 µL of sample was taken from the administration side and added into 72 µL of transport buffer to serve as the sample at the administration side after transport. • 3) After collecting the samples from both sides, the plate was gently tapped to discard the remaining solution in the cell plate, the cell plate was rinsed with the transport buffer, 100 µL of acetonitrile solution containing internal standard working solution was added to each well to lyse the cells, the system was pipetted up and down to well mix it, and then 80 µL of cell lysate from each well was measured by pipetting to serve as the sample after cell lysis. • 4) After collecting all samples in the transport system (T0 sample, receiving side sample, and donor side sample), 160 µL of IS/ACN solution was added to each well, 80 µL of IS/ACN solution was added to the collected lysate sample, and then the sample was sealed. • 5) The sample plate was shaken for 10 min, and stored at -20°C before LC-MS/MS analysis. • 6) A standard curve was plotted, and then 8 µL of standard curve solution was taken and mixed with 72 µL of transport buffer and 160 µL of IS/ACN to serve as the standard curve sample. • 7) All the above samples were centrifuged at 6000 RPM for 10 min, 100 µL of supernatant was taken, 100 µL of H2O was added, and the mixture was fully mixed, and analyzed by LC-MS/MS.

[2] = test system: BXPC-3 cells; assay: BXPC-3 3D cell proliferation assay (methylcellulose, CTG, 7 days); format: cell-based; conditions: Homo sapiens, 168 h, drug treatment for 7 days
Description: 1 g of methylcellulose was weighed and placed into a glass ware and autoclaved. After cooling, 100 mL of the corresponding culture medium was added, the mixture was mixed vigorously, and stirred on a 4°C magnetic stirrer; the mixture was completely dissolved after 48 h and stored at 4°C.
The cells were resuscitated with the corresponding culture medium, and were maintained to grow to the logarithmic growth phase. The cell suspension was collected and centrifuged at 1000 rpm for 5 min. After centrifugation was completed, the supernatant was removed and the cells were re-suspended with an appropriate amount of culture medium. […]
After adding 10 µL of culture medium containing the vehicle to each well, the CTG plate was read. […] The cell plate was placed at room temperature for 10 min to stabilize the luminescent signal, and the luminescent value was read using EnVision. […]
The CTG reagent was thawed and the cell plate was equilibrated to room temperature for 30 min. […] The cell plate was placed at room temperature for 10 min to stabilize the luminescent signal, and the luminescent value was read using EnVision.
Cell viability was calculated using the following formula: (Vsample- VBlank) /(Vvehicle control- VBlank) ×100%. […] The S-shaped dose-survival curve was plotted and IC50 calculated by GraphPad Prism software using non-linear regression model.

[3] = test system: human-derived lung cancer LU5269 subcutaneous xenograft; assay: Efficacy in human-derived lung cancer LU5269 subcutaneous xenograft model; format: in vivo, NOD/SCID mice; conditions: PO, QD*21
Description: Tumor tissues were collected from LU5269 lung cancer xenograft model bearing mice, cut into tumor masses with a diameter of 2-3 mm, and seeded subcutaneously in the right anterior scapula of NOD/SCID mice.
Before administration, all animals were weighed and tumor volume was measured using a vernier caliper. When the tumor grew to have an average volume of about 140 mm^3, group-based drug administration was performed based on tumor size (vehicle: 0.2% HPC + 0.5% Tween 80). Since tumor volume can affect the effectiveness of treatment, random grouping design was used to group the mice according to tumor volume to ensure that the tumor volumes in different groups were similar. Tumor volume calculation formula: Tumor volume (mm^3) = 1/2 × (a ×b^2) (wherein a denotes the long diameter and b denotes the short diameter).
Table 12 Route, dose and regimen of administration in the subcutaneous xenograft model

SMILES | Papp A→B at 120 min, 10 µM ([1]; 120 min) | Papp B→A at 120 min, 10 µM ([1]; 120 min) | efflux ratio at 120 min, 10 µM [1] | IC50 [2] | TGI ([3]; 50mpk) | TGI ([3]; 75mpk) | TGI ([3]; 100 mpk) | TGI ([3]; 150mpk) | Papp A→B at 2 h ([1]; 120 min) | Papp B→A at 2 h ([1]; 120 min)
CN1CC[C@@H](Nc2cccc3c(CC(F)(F)F)c(C#CCNC(=O)c4cnn(C(C)(C)C)c4)nn23)[C@@H](F)C1 [Compound 001, 1-tert-butyl-N-[3-(7-{[(3S,4R)-3-fluoro-1-methylpiperidin-4-yl]amino}-3-(2,2,2-trifluoroethyl)pyrazolo[1,5-a]pyridin-2-yl)prop-2-yn-1-yl]-1H-pyrazole-4-carboxamide] | 4.39 ×10⁻⁶ cm/s | 6.5 ×10⁻⁶ cm/s | 1.48 |  |  |  |  |  |  | 
CN1CC[C@@H](Nc2cccc3c(CC(F)(F)F)c(C#CCNC(=O)c4cnn(C(C)(C)C)c4N)nn23)[C@@H](F)C1 [Compound 047] |  |  | 1.51 | 180 nM | 82% | 111% | 119% | 119% | 5.18 ×10⁻⁶ cm/s | 7.8 ×10⁻⁶ cm/s
CNC(=O)c1ccc(NCC#Cc2cc3c(N[C@@H]4CCN(C)C[C@@H]4F)cccc3n2CC(F)(F)F)c(OC)c1 [Control compound, reference compound] | 4.68 ×10⁻⁶ cm/s | 19.4 ×10⁻⁶ cm/s | 4.16 | 769 nM |  |  | 119% |  |  | 
